Data set [1] deals with T1, USP9X Δβ catalytic domain.
T1 construct: His/SUMO (pOPIN-S vector) (N, cleaved yes); made in house; host or cells: E. coli BL21
The data set is described as follows: Ub-PA suicide probe assay, USP9X Δβ. The class given is biochemical, human. The following applies: 50 µM compound. The source says: An expression construct for the USP9X catalytic domain (aa 1551–1970, […]: Q93008-1), was codon optimised for bacterial expression, synthesised in gBlock format (Integrated DNA Technologies) and cloned into the pOPIN-S vector (Berrow et al, [2007]), which was digested with KpnI and HindIII using In-Fusion™ HD cloning (Takara Clontech). For SPR, constructs were ordered with a GGS linker followed by a C-terminal AviTag™ (aa sequence: […]) and were cloned as above. For the USP9X Δβ catalytic domain a deletion construct ΔE1924-K1943 and for USP9X/USP24 chimera, a construct with USP9X Y1757-A1766 replaced with the USP24 (NCBI Reference Sequence: NP_056121) aa motif […] was used. All constructs were confirmed by Sanger sequencing (AGRF).
For inhibitor activity assays, USP9X catalytic domain (di-ubiquitin cleavage assay: 750 nM, ubiquitin-probe assays: 2.5 µM) was pre-incubated with USP9X inhibitors for 30 min at ambient temperature and subsequently mixed with di-ubiquitin (final concentration 2 µM) in assay buffer (25 mM Tris [pH 8.0], 150 mM NaCl, 10 mM DTT) at pH 8.0 or was mixed with ubiquitin-propargylamide (Ub-PA)/ubiquitin-vinyl sulfonate (Ub-VS) probes at a final concentration of 10 µM in assay buffer. […]

Another data set deals with MDA-MB-231 cells. The experiment in a line: Lattice light sheet imaging of mitosis, MDA-MB-231. The class given is cell-based, human. Conditions: 15 µM. The procedure: MDA-MB-231, MiaPaca2, HMEC-1, SK-MEL-2 and UO-31 cells were seeded at 2–15 × 10^4 cells/mL in 8-well glass µ-slides (ibidi). […] SPY650-Tubulin, SPY555-DNA (both Spirochrome, Inc.), and Annexin V FITC (Sigma-Aldrich) were added at a final concentration of 1 in 1000. Cells were left to grow for 24 h before time-lapse live-cell data were acquired using a Lattice Light Sheet 7 (Zeiss). […] Aberration correction was set to a value of 170 to minimise aberrations as determined by imaging the Point Spread Function using 100 nm fluorescent microspheres. Data were collected with a frame time of 10 ms and a z step of 0.4 μm with 834 frames per 290 μm by 290 μm. Individual regions were imaged in parallel across six wells of the eight-well chamber slide. Data are presented as Maximum Intensity Projections (MIPs), and these MIPs were used for all downstream analysis. Tile regions were imaged for 24 h with 10 min intervals at 37 °C, 5% CO2. Analysis was performed using the MIPs of the different full fields of cells over the 24–48 h time period. Mitosis and mitosis arrest were classified through a combination of automated image analysis and manual validation. […] Small erroneous detected spots were further removed through a manually adjusted size filter. […] The mean intensity of all tracks was then measured to determine mitosis and mitosis arrest. […]

The nature of data set [2]: Caco-2 cell permeability assessment. The class given is in vitro ADME. Conditions: human, 10 µM donor. The procedure: The apparent permeability coefficient was assessed using Caco-2 cell monolayers as described previously (Katneni et al, [2018]). […] Compound flux was assessed over a period of up to 120 min, with samples taken from the acceptor chamber at multiple time points. Samples from the donor chamber were taken at the beginning and at the end of the experiment. The mass balance at the end of the permeability experiment was calculated according to the following equation, where compound mass was calculated as the product of molar concentration and volume of donor or acceptor solution: Mass balance%=Massfinal donor+Massfinal acceptor/Massinitial donorx100
The apparent permeability coefficient (Papp) was determined based on the rate of compound appearance in acceptor buffer at steady state using the following equation: Papp(cm/s)=dQ/dtx1/cinitial donorx A dQ/dt : apparent steady-state transport rate (µmol/s)
A: surface area of Caco-2 monolayer (0.3 cm^2 in the test system used)
cinitial donor : concentration in the donor at the start of experiment (µmol/cm^3).
A general note: Caco-2 monolayers are a common model of the intestinal barrier.

Data set [3] deals with CEP55, MKRN2, EDF1, CHMP2B, DTX3L. The experiment in a line: Immunoblotting of commonly depleted USP9X substrates. The class given is cell-based, human. Conditions: MiaPaca2 and SK-MEL-2, 24 h; rescued with proteasomal inhibition (MG132). The procedure: The next day, cells were lysed in DISC lysis buffer (20 mM TRIS/HCl [pH 7.5], 150 mM NaCl, 2 mM EDTA [pH 8.0], 1% [v/v] Triton X 100, 10% [v/v] glycerol) supplemented with 2% (w/v) SDS and PhosSTOP tablets (Roche). To shred DNA, DISC lysates were run through polypropylene columns (Pierce). […] Next, membranes were washed twice in TBS-T and incubated with primary antibodies at 4 °C o/n. Primary antibodies were diluted in antibody dilution buffer (5% [w/v] BSA [pH 5.2, Sigma-Aldrich] in TBS-T with 0.04% [v/v] sodium azide) as per the manufacturer’s instructions. […] Next, membranes were washed four times for 5 min each in TBS-T. Membranes were developed in ECL (Bio-Rad) and imaged using the ChemiDoc imaging system (Bio-Rad). Images were processed using Image Lab software.
For orientation: A western blot detects proteins with antibodies after separation by electrophoresis.

We go through one compound from PMC13144739, “Global analysis of cancer cell responses to USP9X inhibition” (The EMBO Journal, 2026).

What is called Papp A→B is the apparent permeability from the apical to the basolateral side of a cell layer. A lower Papp A→B goes with slow passage. One may read the Papp B→A as the apparent permeability from the basolateral to the apical side of a cell layer.

For the compound `Cc1[nH]c2ccc(C(=O)N3CCN(S(=O)(=O)c4ccc5c(c4)OCCO5)CC3)cc2c1C` [WEHI-092], in data set [1], the “modification of USP9X Δβ with Ub-PA probe” value is “unable to be modified by the probe”. Moreover, the “apoptosis on metaphase arrest (Annexin V uptake), MDA-MB-231” value with MDA-MB-231 cells is “did not trigger apoptosis”. For the same compound, the “cell division phenotype, MDA-MB-231” value in the data set with MDA-MB-231 cells (imaged 24-48 h) is given as “significant defects in cell division”. Also, in data set [2] (Caco-2, apical-to-basolateral), the apical-to-basolateral permeability (Papp A→B) at 10 µM stood at 42.6 ×10⁻⁶ cm/s. The compound further gave an apparent permeability from basolateral to apical (Papp B→A) at 10 µM in data set [2] (Caco-2, basolateral-to-apical) of 70.4 ×10⁻⁶ cm/s. For the same compound, the “MKRN2, CHMP2B and DTX3L protein levels (Western Blot)” value in data set [3] is recorded as “led to protein depletion”.
